Results on nine molecules are retold here after ChEMBL document CHEMBL1201862, “PubChem BioAssay data set” (2004).

Some test systems named below: BT-549; EKVX; HCC 2998; HCT-116; MDA-MB-435; MOLT-4; NCI/ADR-RES; OVCAR-3; OVCAR-5; OVCAR-8; RPMI-8226; SF-295; SNB-75; T47D; UACC-257; UACC-62; HOP-92.
Holding throughout (assay): NCI anticancer screen, dose series, 48 h

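Step 1: Grow cells in 96-well plates. Step 2: Expose to compound for 48 hours at 5 concentrations. Step 3: Interpolate endpoints linearly; if unreached, use highest concentration. GI50 marks 50% less growth.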 Calls of active or inactive are those of the source. Cut-off read from the data, not from the text of the source: active = GI50 up to about 1.1 µM and inactive = higher.

For `Cc1ccc(CC(=O)Nc2ccc(NC(=O)/C=C/NC(=O)/C=C/c3ccc(-c4ccccc4)cc3)cc2C(=O)c2ccccc2)cc1`, the GI50 with BT-549 is 1.46 µM (inactive); in the assay with EKVX, 1.32 µM (inactive); with HCC 2998 it was 0.0237 µM (active); with HCT-116, 1.12 µM (active); in the assay with MDA-MB-435, 3.27 µM (inactive); in the assay with MOLT-4, 4.17 µM (inactive). Further, the GI50 was 5.41 µM (inactive) in the assay with NCI/ADR-RES; 1.88 µM (inactive) in the assay on OVCAR-3; 2.09 µM (inactive) with OVCAR-5; 0.871 µM (active) with OVCAR-8; 2.4 µM (inactive) in the assay with RPMI-8226; 1.36 µM (inactive) in the assay with SF-295. In addition, the GI50 in the assay with SNB-75 was 1.93 µM (inactive); with T47D, 2.84 µM (inactive); in the assay with UACC-257 it was 2.05 µM (inactive); with UACC-62, 2.16 µM (inactive).
Regarding `CCOC(=O)CN1C(=O)c2ccc(NC(=O)C(=O)O)cc2S1(=O)=O`, the GI50 in the assay with BT-549, with EKVX, with HCC 2998, in the assay on HCT-116, in the assay on HOP-92 and in the assay with MDA-MB-435 was > 100 µM (inactive) each time. In addition, the GI50 in the assay on MOLT-4, with NCI/ADR-RES, in the assay with OVCAR-5, in the assay with OVCAR-8, in the assay with RPMI-8226 and in the assay with SF-295 was > 100 µM (inactive) in each case. In addition, the GI50 with T47D, in the assay on UACC-257 and in the assay on UACC-62 was > 100 µM (inactive) throughout.
Take `CN1CCc2c(sc3ncn(C)c(=N)c23)C1`: the GI50 with BT-549, with EKVX, in the assay on HCT-116, in the assay with HOP-92, in the assay with MDA-MB-435 and with MOLT-4 was > 100 µM (inactive) each time. The GI50 with NCI/ADR-RES, in the assay with OVCAR-3, in the assay on OVCAR-5, in the assay on OVCAR-8, in the assay on RPMI-8226 and in the assay on SF-295 was > 100 µM (inactive) in each case. The GI50 in the assay with SNB-75, in the assay with T47D, with UACC-257 and in the assay on UACC-62 was > 100 µM (inactive) each time.
As to `C[N+](C)(C)[BH-](Br)C(O)O` (centres undefined), the GI50 with BT-549, in the assay on EKVX, in the assay with HCC 2998, in the assay on HCT-116, in the assay on HOP-92 and in the assay with MDA-MB-435 was > 100 µM (inactive) in each case. The GI50 in the assay on MOLT-4 is > 100 µM (inactive); in the assay with NCI/ADR-RES it was > 100 µM (inactive); with OVCAR-3, > 100 µM (inactive); in the assay with OVCAR-5, > 100 µM (inactive); in the assay with SF-295, > 100 µM (inactive); in the assay on SNB-75, 40.6 µM (inactive). The GI50 with T47D, in the assay on UACC-257 and in the assay on UACC-62 was > 100 µM (inactive) each time.
For `c1ccc(C2(c3cc4ccccc4[nH]3)OCCO2)cc1`, the GI50 is 75.7 µM (inactive) in the assay with BT-549; 23.9 µM (inactive) with EKVX; 37.8 µM (inactive) in the assay on HCT-116; 17.3 µM (inactive) with HOP-92; 31.4 µM (inactive) in the assay on MDA-MB-435; 11.6 µM (inactive) in the assay on MOLT-4. In addition, the GI50 with NCI/ADR-RES is 67.6 µM (inactive); with OVCAR-3, 53.5 µM (inactive); with OVCAR-5, 30.8 µM (inactive); in the assay with OVCAR-8, 76.2 µM (inactive); with RPMI-8226, 27.3 µM (inactive); in the assay on SF-295, 53.1 µM (inactive). Further, the GI50 in the assay with SNB-75 was > 100 µM (inactive); in the assay on T47D, 59.8 µM (inactive); in the assay on UACC-257, 31.6 µM (inactive); in the assay with UACC-62, 38.8 µM (inactive).
On to `COc1c(-c2nc3ccc(N4CCN(C)CC4)cc3[nH]2)cc(OC)c2[nH]c(CO)nc12`, for which the GI50 in the assay on BT-549 was > 100 µM (inactive); in the assay on EKVX it was > 100 µM (inactive); in the assay on HCT-116 it was 58.6 µM (inactive); in the assay on HOP-92, > 100 µM (inactive); in the assay on MDA-MB-435, 69.5 µM (inactive); in the assay with MOLT-4 it was > 100 µM (inactive). Further, the GI50 in the assay with NCI/ADR-RES, in the assay on OVCAR-3, with OVCAR-5, in the assay on OVCAR-8, in the assay on RPMI-8226 and in the assay on SF-295 was > 100 µM (inactive) throughout. Also, the GI50 in the assay with SNB-75 was 48.3 µM (inactive); in the assay on T47D, > 100 µM (inactive); in the assay with UACC-257, > 100 µM (inactive); with UACC-62 it was > 100 µM (inactive).
Regarding `COc1cc(S(=O)(=O)Nc2nc(-c3ccc(/N=C/c4cccs4)cc3)cs2)ccc1Cl`, the GI50 was 37 µM (inactive) with BT-549; > 100 µM (inactive) in the assay on EKVX; > 100 µM (inactive) with HCC 2998; 54.6 µM (inactive) in the assay on HCT-116; 37.2 µM (inactive) in the assay on HOP-92; > 100 µM (inactive) in the assay on MDA-MB-435. Moreover, the GI50 is 27.5 µM (inactive) with MOLT-4; > 100 µM (inactive) with NCI/ADR-RES; 27.5 µM (inactive) in the assay with OVCAR-3; > 100 µM (inactive) in the assay with OVCAR-5; 40.7 µM (inactive) in the assay on OVCAR-8; > 100 µM (inactive) with SF-295. Further, the GI50 in the assay on SNB-75 was 33.8 µM (inactive); in the assay with T47D it was 84.3 µM (inactive); in the assay with UACC-257 it was > 100 µM (inactive); with UACC-62, 19.8 µM (inactive).
Take `O=c1c(C(c2ccc(O)cc2)c2c(O)oc3ccccc3c2=O)c(O)oc2ccccc12`: the GI50 is 59.8 µM (inactive) in the assay with BT-549; > 100 µM (inactive) in the assay with EKVX; 46.3 µM (inactive) in the assay on HCC 2998; > 100 µM (inactive) in the assay with HCT-116; 78.5 µM (inactive) in the assay on HOP-92; 98.9 µM (inactive) in the assay on MDA-MB-435. Besides, the GI50 is > 100 µM (inactive) in the assay with NCI/ADR-RES; 76.9 µM (inactive) in the assay with OVCAR-3; 48.8 µM (inactive) with OVCAR-8; 30.9 µM (inactive) in the assay with SNB-75; > 100 µM (inactive) with T47D; > 100 µM (inactive) with UACC-257. Moreover, in the assay with UACC-62, the GI50 is 79.1 µM (inactive).
Turning to `CN(Cc1ccccc1)Cn1ccnc1`, the GI50 was > 100 µM (inactive) in the assay on BT-549; > 85.1 µM (inactive) in the assay with EKVX; 39.4 µM (inactive) with HCT-116; 25.7 µM (inactive) with HOP-92; 51.4 µM (inactive) in the assay with MDA-MB-435; 46.5 µM (inactive) with MOLT-4. Besides, the GI50 in the assay on NCI/ADR-RES is > 100 µM (inactive); in the assay on OVCAR-3, > 100 µM (inactive); in the assay with OVCAR-5 it was > 100 µM (inactive); with OVCAR-8, > 100 µM (inactive); with RPMI-8226, 29.2 µM (inactive); with SF-295, > 82.6 µM (inactive). Moreover, the GI50 in the assay on SNB-75 was > 100 µM (inactive); in the assay with T47D, > 60.7 µM (inactive); in the assay on UACC-257 it was 22.4 µM (inactive); with UACC-62 it was > 100 µM (inactive).
